≈ marks a conversion by molar mass, not a printed value. Calls of active or inactive are those of the source. The calls are words filed in the database; no cut-off is given here.
Columns and labels:
Staphylococcus aureus [1] = experiment: Antibacterial activity against methicillin-sensitive Staphylococcus aureus 209P after 24 hrs by liquid dilution method; type: functional
Staphylococcus aureus [2] = experiment: Antibacterial activity against methicillin-resistant Staphylococcus aureus isolate OM481 after 24 hrs by liquid dilution method; type: functional; conditions: isolate OM481, 24 h
Staphylococcus aureus [3] = experiment: Antibacterial activity against methicillin-resistant Staphylococcus aureus isolate OM505 after 24 hrs by liquid dilution method; type: functional; conditions: isolate OM505, 24 h
Pseudomonas aeruginosa [4] = experiment: Antibacterial activity against Pseudomonas aeruginosa PAO1 after 24 hrs by liquid dilution method; type: functional
Pseudomonas aeruginosa [5] = experiment: Antibacterial activity against Pseudomonas aeruginosa PAO1 assessed as inhibition of green pigment formation; type: functional
Albumin [6] = target: T1, Albumin (Bos taurus, UniProt P02769); experiment: Binding affinity to bovine serum albumin assessed as retention time for compound-protein complex formation at 0.5 mg/ml by size exclusion chromatographic method (reference value: 16 mins); type: ADME; conditions: cattle
Albumin [7] = target: T1, Albumin; experiment: Binding affinity to bovine serum albumin by SDS-PAGE analysis; type: ADME; conditions: cattle, isolated protein
Staphylococcus aureus [8] = experiment: Antibacterial activity against methicillin-sensitive Staphylococcus aureus 209P; type: functional
Staphylococcus aureus [9] = experiment: Antibacterial activity against methicillin-resistant Staphylococcus aureus isolate OM481; type: functional
Staphylococcus aureus [10] = experiment: Antibacterial activity against methicillin-resistant Staphylococcus aureus isolate OM505; type: functional

T1 sequence (P02769 whole entry): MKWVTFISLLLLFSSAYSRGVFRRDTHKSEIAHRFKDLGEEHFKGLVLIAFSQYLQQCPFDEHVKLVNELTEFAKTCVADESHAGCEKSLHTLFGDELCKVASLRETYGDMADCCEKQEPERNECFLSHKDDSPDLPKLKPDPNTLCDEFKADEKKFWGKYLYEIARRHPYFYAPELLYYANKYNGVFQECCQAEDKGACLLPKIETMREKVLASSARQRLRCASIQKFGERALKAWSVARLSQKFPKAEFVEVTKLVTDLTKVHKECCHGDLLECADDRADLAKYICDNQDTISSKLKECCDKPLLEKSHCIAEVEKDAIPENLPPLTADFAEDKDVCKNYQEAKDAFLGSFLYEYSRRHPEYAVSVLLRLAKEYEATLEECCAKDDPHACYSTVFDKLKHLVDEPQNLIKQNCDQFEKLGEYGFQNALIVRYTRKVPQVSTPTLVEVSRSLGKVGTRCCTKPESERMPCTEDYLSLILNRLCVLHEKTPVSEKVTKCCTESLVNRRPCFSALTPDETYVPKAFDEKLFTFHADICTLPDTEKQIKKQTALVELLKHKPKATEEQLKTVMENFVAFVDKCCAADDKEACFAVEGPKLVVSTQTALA

Row | Compound | MIC (Staphylococcus aureus [1]) | MIC (Staphylococcus aureus [2]) | MIC (Staphylococcus aureus [3]) | MIC (Pseudomonas aeruginosa [4]; PAO1, 24 h) | MIC (Pseudomonas aeruginosa [5]) | Retention time (Albumin [6]) | Activity (Albumin [7]) | inhibition (Pseudomonas aeruginosa [5]) | further results
1 | O=C(O[C@@H]1O[C@@H]2COC(=O)c3cc(O)c(O)c(O)c3-c3c(cc(Oc4c(C(=O)O)cc(O)c(O)c4O)c(O)c3O)C(=O)O[C@H]2[C@H](OC(=O)c2cc(O)c(O)c(O)c2)[C@H]1OC(=O)c1cc(O)c(O)c(O)c1)c1cc(O)c(O)c(O)c1 | 58 µM (≈ 64.2 µg/mL) | 29 µM (≈ 32.1 µg/mL) | 58 µM (≈ 64.2 µg/mL) | > 926 µM | 29 µM (≈ 32.1 µg/mL) | 9 to 12 min | Active |  | 
2 | O=C1OC[C@H]2O[C@H](O)[C@@H]3OC(=O)c4cc(O)c(O)c(O)c4-c4c(cc(O)c(O)c4O)C(=O)O[C@H]3[C@@H]2OC(=O)c2cc(O)c(O)c(O)c2-c2c1cc(O)c(O)c2O |  |  |  |  |  |  |  | Active | 
3 | Cc1onc(-c2ccccc2)c1C(=O)N[C@@H]1C(=O)N2[C@@H]1SC(C)(C)[C@@H]2C(=O)O [OXACILLIN] | < 0.6 µM | 638 µM (≈ 256 µg/mL) | 319 µM (≈ 128 µg/mL) |  |  |  |  |  | 
4 | O=C(O[C@@H]1O[C@@H]2COC(=O)c3cc(O)c(O)c(O)c3-c3c(cc(Oc4c(C(=O)O[C@@H]5O[C@@H]6COC(=O)c7cc(O)c(O)c(O)c7-c7c(cc(O)c(O)c7O)C(=O)O[C@H]6[C@H](OC(=O)c6cc(O)c(O)c(O)c6)[C@H]5OC(=O)c5cc(O)c(O)c(O)c5)cc(O)c(O)c4O)c(O)c3O)C(=O)O[C@H]2[C@H](OC(=O)c2cc(O)c(O)c(O)c2)[C@H]1OC(=O)c1cc(O)c(O)c(O)c1)c1cc(O)c(O)c(O)c1 | 34 µM (≈ 63.8 µg/mL) | 34 µM (≈ 63.8 µg/mL) | 68 µM (≈ 128 µg/mL) | > 546 µM | 34 µM (≈ 63.8 µg/mL) | 9 to 12 min | Active |  | 
5 | O=C(O[C@@H]1COC(=O)c2cc(O)c(O)c(O)c2-c2c(cc(O)c(O)c2O)C(=O)O[C@H]1[C@@H]1OC(=O)c2cc(O)c(O)c(O)c2-c2c(O)c(O)c(O)c3c2C(=O)O[C@H]1[C@H]3O)c1cc(O)c(O)c(O)c1 |  |  |  |  |  |  |  | Active | 
6 | O=C(OC[C@H]1O[C@@H](OC(=O)c2cc(O)c(O)c(O)c2)[C@H](OC(=O)c2cc(O)c(O)c(O)c2)[C@@H](OC(=O)c2cc(O)c(O)c(O)c2)[C@@H]1OC(=O)c1cc(O)c(O)c(O)c1)c1cc(O)c(O)c(O)c1 [PENTAGALLOYL GLUCOSE] |  |  |  |  |  |  |  | Active | MIC (Staphylococcus aureus [8]): 68 µM (≈ 64 µg/mL); MIC (Staphylococcus aureus [9]): 68 µM (≈ 64 µg/mL); MIC (Staphylococcus aureus [10]): 68 µM (≈ 64 µg/mL)
7 | GENTAMICIN |  |  |  |  |  |  |  |  | MIC (Pseudomonas aeruginosa [4]): 17 µM
8 | O=C(O[C@H]1[C@@H]2OC(=O)c3cc(Oc4c(C(=O)O)cc(O)c(O)c4O)c(O)c(O)c3-c3c(cc(O)c(O)c3O)C(=O)OC[C@H]2OC(O)[C@@H]1OC(=O)c1cc(O)c(O)c(O)c1)c1cc(O)c(O)c(O)c1 (some centres undefined) | 67 µM (≈ 64 µg/mL) | 34 µM (≈ 32.5 µg/mL) | 67 µM (≈ 64 µg/mL) | > 1070 µM | 34 µM (≈ 32.5 µg/mL) | 9 to 12 min | Active |  | 
9 | NCC[C@H](O)C(=O)N[C@@H]1C[C@H](N)[C@@H](O[C@H]2O[C@H](CN)[C@@H](O)[C@H](O)[C@H]2O)[C@H](O)[C@H]1O[C@H]1O[C@H](CO)[C@@H](O)[C@H](N)[C@H]1O [AMIKACIN] |  |  |  | 14 µM (≈ 8.2 µg/mL) |  |  |  |  | 
10 | O=C(O[C@@H]1O[C@@H]2COC(=O)c3cc(O)c(O)c(O)c3-c3c(cc(Oc4c(C(=O)O[C@@H]5O[C@@H]6COC(=O)c7cc(O)c(O)c(O)c7-c7c(cc(Oc8c(C(=O)O[C@@H]9O[C@@H]%10COC(=O)c%11cc(O)c(O)c(O)c%11-c%11c(cc(O)c(O)c%11O)C(=O)O[C@H]%10[C@H](OC(=O)c%10cc(O)c(O)c(O)c%10)[C@H]9OC(=O)c9cc(O)c(O)c(O)c9)cc(O)c(O)c8O)c(O)c7O)C(=O)O[C@H]6[C@H](OC(=O)c6cc(O)c(O)c(O)c6)[C@H]5OC(=O)c5cc(O)c(O)c(O)c5)cc(O)c(O)c4O)c(O)c3O)C(=O)O[C@H]2[C@H](OC(=O)c2cc(O)c(O)c(O)c2)[C@H]1OC(=O)c1cc(O)c(O)c(O)c1)c1cc(O)c(O)c(O)c1 | 23 µM (≈ 64.7 µg/mL) | 91 µM (≈ 256 µg/mL) | 91 µM (≈ 256 µg/mL) | > 364 µM | 23 µM (≈ 64.7 µg/mL) | 9 to 12 min | Active |  | 
